Settings: Liquid; for speed of sound: Frequency=3 MHz, Single path-length method; for mass density: Vibrating tube method

CC(=O)OCCC(C)C [3-methylbutyl ethanoate]
Settings | mass density [kg/m3] | speed of sound [m/s]
293.15 K, 100 kPa | 872.9 | 1213
293.15 K, 500 kPa | 874 | –
293.15 K, 1000 kPa | 874 | –
293.15 K, 2500 kPa | 875 | –
293.15 K, 5000 kPa | 877 | –
293.15 K, 7500 kPa | 879 | –
293.15 K, 10000 kPa | 881 | –
293.15 K, 12500 kPa | 883 | –
293.15 K, 15000 kPa | 885 | –
293.15 K, 17500 kPa | 887 | –
293.15 K, 20000 kPa | 889 | –
293.15 K, 22500 kPa | 891 | –
293.15 K, 25000 kPa | 893 | –
293.15 K, 27500 kPa | 895 | –
293.15 K, 30000 kPa | 896 | –
293.15 K, 32500 kPa | 898 | –
293.15 K, 35000 kPa | 899 | –
293.15 K, 37500 kPa | 901 | –
298.15 K, 100 kPa | 868 | 1193
298.15 K, 500 kPa | 869 | –
298.15 K, 1000 kPa | 869 | –
298.15 K, 2500 kPa | 870 | –
298.15 K, 5000 kPa | 873 | –
298.15 K, 7500 kPa | 875 | –
298.15 K, 10000 kPa | 877 | –
298.15 K, 12500 kPa | 879 | –
298.15 K, 15000 kPa | 881 | –
298.15 K, 17500 kPa | 883 | –
298.15 K, 20000 kPa | 885 | –
298.15 K, 22500 kPa | 886 | –
298.15 K, 25000 kPa | 888 | –
298.15 K, 27500 kPa | 890 | –
298.15 K, 30000 kPa | 892 | –
298.15 K, 32500 kPa | 894 | –
298.15 K, 35000 kPa | 895 | –
298.15 K, 37500 kPa | 897 | –
313.15 K, 100 kPa | 853.3 | 1132
313.15 K, 500 kPa | 854 | –
313.15 K, 1000 kPa | 854 | –
313.15 K, 2500 kPa | 856 | –
313.15 K, 5000 kPa | 858 | –
313.15 K, 7500 kPa | 861 | –
313.15 K, 10000 kPa | 863 | –
313.15 K, 12500 kPa | 865 | –
313.15 K, 15000 kPa | 867 | –
313.15 K, 17500 kPa | 869 | –
313.15 K, 20000 kPa | 871 | –
313.15 K, 22500 kPa | 873 | –
313.15 K, 25000 kPa | 875 | –
313.15 K, 27500 kPa | 877 | –
313.15 K, 30000 kPa | 879 | –
313.15 K, 32500 kPa | 881 | –
313.15 K, 35000 kPa | 883 | –
313.15 K, 37500 kPa | 885 | –
333.15 K, 100 kPa | 833.3 | 1045
333.15 K, 500 kPa | 834 | –
333.15 K, 1000 kPa | 834 | –
333.15 K, 2500 kPa | 836 | –
333.15 K, 5000 kPa | 839 | –
333.15 K, 7500 kPa | 842 | –
333.15 K, 10000 kPa | 844 | –
333.15 K, 12500 kPa | 847 | –
333.15 K, 15000 kPa | 849 | –
333.15 K, 17500 kPa | 851 | –
333.15 K, 20000 kPa | 854 | –
333.15 K, 22500 kPa | 856 | –
333.15 K, 25000 kPa | 858 | –
333.15 K, 27500 kPa | 860 | –
333.15 K, 30000 kPa | 862 | –
333.15 K, 32500 kPa | 864 | –
333.15 K, 35000 kPa | 866 | –
333.15 K, 37500 kPa | 868 | –
353.15 K, 500 kPa | 814 | –
353.15 K, 1000 kPa | 814 | –
353.15 K, 2500 kPa | 816 | –
353.15 K, 5000 kPa | 819 | –
353.15 K, 7500 kPa | 823 | –
353.15 K, 10000 kPa | 825 | –
353.15 K, 12500 kPa | 828 | –
353.15 K, 15000 kPa | 831 | –
353.15 K, 17500 kPa | 834 | –
353.15 K, 20000 kPa | 836 | –
353.15 K, 22500 kPa | 839 | –
353.15 K, 25000 kPa | 841 | –
353.15 K, 27500 kPa | 843 | –
353.15 K, 30000 kPa | 846 | –
353.15 K, 32500 kPa | 848 | –
353.15 K, 35000 kPa | 850 | –
353.15 K, 37500 kPa | 852 | –
373.15 K, 500 kPa | 793 | –
373.15 K, 1000 kPa | 794 | –
373.15 K, 2500 kPa | 796 | –
373.15 K, 5000 kPa | 800 | –
373.15 K, 7500 kPa | 803 | –
373.15 K, 10000 kPa | 806 | –
373.15 K, 12500 kPa | 810 | –
373.15 K, 15000 kPa | 813 | –
373.15 K, 17500 kPa | 816 | –
373.15 K, 20000 kPa | 818 | –
373.15 K, 22500 kPa | 821 | –
373.15 K, 25000 kPa | 824 | –
373.15 K, 27500 kPa | 827 | –
373.15 K, 30000 kPa | 829 | –
373.15 K, 32500 kPa | 832 | –
373.15 K, 35000 kPa | 834 | –
373.15 K, 37500 kPa | 836 | –
393.15 K, 500 kPa | 772 | –
393.15 K, 1000 kPa | 773 | –
393.15 K, 2500 kPa | 775 | –
393.15 K, 5000 kPa | 779 | –
393.15 K, 7500 kPa | 783 | –
393.15 K, 10000 kPa | 787 | –
393.15 K, 12500 kPa | 791 | –
393.15 K, 15000 kPa | 794 | –
393.15 K, 17500 kPa | 798 | –
393.15 K, 20000 kPa | 801 | –
393.15 K, 22500 kPa | 804 | –
393.15 K, 25000 kPa | 807 | –
393.15 K, 27500 kPa | 810 | –
393.15 K, 30000 kPa | 812 | –
393.15 K, 32500 kPa | 815 | –
393.15 K, 35000 kPa | 818 | –
393.15 K, 37500 kPa | 820 | –
413.15 K, 500 kPa | 750 | –
413.15 K, 1000 kPa | 751 | –
413.15 K, 2500 kPa | 754 | –
413.15 K, 5000 kPa | 759 | –
413.15 K, 7500 kPa | 763 | –
413.15 K, 10000 kPa | 768 | –
413.15 K, 12500 kPa | 772 | –
413.15 K, 15000 kPa | 776 | –
413.15 K, 17500 kPa | 779 | –
413.15 K, 20000 kPa | 783 | –
413.15 K, 22500 kPa | 786 | –
413.15 K, 25000 kPa | 790 | –
413.15 K, 27500 kPa | 793 | –
413.15 K, 30000 kPa | 796 | –
413.15 K, 32500 kPa | 799 | –
413.15 K, 35000 kPa | 802 | –
413.15 K, 37500 kPa | 805 | –
433.15 K, 500 kPa | 726 | –
433.15 K, 1000 kPa | 727 | –
433.15 K, 2500 kPa | 731 | –
433.15 K, 5000 kPa | 737 | –
433.15 K, 7500 kPa | 742 | –
433.15 K, 10000 kPa | 747 | –
433.15 K, 12500 kPa | 752 | –
433.15 K, 15000 kPa | 757 | –
433.15 K, 17500 kPa | 761 | –
433.15 K, 20000 kPa | 765 | –
433.15 K, 22500 kPa | 769 | –
433.15 K, 25000 kPa | 772 | –
433.15 K, 27500 kPa | 776 | –
433.15 K, 30000 kPa | 779 | –
433.15 K, 32500 kPa | 783 | –
433.15 K, 35000 kPa | 786 | –
433.15 K, 37500 kPa | 789 | –
453.15 K, 500 kPa | 701 | –
453.15 K, 1000 kPa | 703 | –
453.15 K, 2500 kPa | 707 | –
453.15 K, 5000 kPa | 714 | –
453.15 K, 7500 kPa | 721 | –
453.15 K, 10000 kPa | 727 | –
453.15 K, 12500 kPa | 732 | –
453.15 K, 15000 kPa | 737 | –
453.15 K, 17500 kPa | 742 | –
453.15 K, 20000 kPa | 747 | –
453.15 K, 22500 kPa | 751 | –
453.15 K, 25000 kPa | 755 | –
453.15 K, 27500 kPa | 759 | –
453.15 K, 30000 kPa | 763 | –
453.15 K, 32500 kPa | 766 | –
453.15 K, 35000 kPa | 770 | –
453.15 K, 37500 kPa | 773 | –
473.15 K, 500 kPa | 674 | –
473.15 K, 1000 kPa | 676 | –
473.15 K, 2500 kPa | 682 | –
473.15 K, 5000 kPa | 691 | –
473.15 K, 7500 kPa | 698 | –
473.15 K, 10000 kPa | 705 | –
473.15 K, 12500 kPa | 712 | –
473.15 K, 15000 kPa | 717 | –
473.15 K, 17500 kPa | 723 | –
473.15 K, 20000 kPa | 728 | –
473.15 K, 22500 kPa | 733 | –
473.15 K, 25000 kPa | 738 | –
473.15 K, 27500 kPa | 742 | –
473.15 K, 30000 kPa | 746 | –
473.15 K, 32500 kPa | 750 | –
473.15 K, 35000 kPa | 754 | –
473.15 K, 37500 kPa | 757 | –

From the NIST ThermoML archive (doi:10.1021/acs.jced.9b00396)
